Source: ChEMBL document CHEMBL2406981, “Novel pyrazoline amidoxime and their 1,2,4-oxadiazole analogues: synthesis and pharmacological screening” (Bioorg Med Chem Lett, 2013)
Values after ≈ are worked out from the molar mass of the structure shown.

System: Aspergillus flavus
Assay: Antimicrobial activity against Aspergillus flavus MTCC 873 at 100 ug/ml after 24 hrs by agar disc diffusion method
Type: functional
Settings: MTCC 873, 24 h, read-out: DIZ
Oc1ccc(C2=NN(c3ccccc3)C(c3noc(-c4ccc(Cl)cc4)n3)C2)cc1 (stereo unspecified) showed a zone of inhibition at 100 µg/mL of 18 mm.

System: not listed separately
Assay: Antioxidant activity assessed as reducing power of ferric ion at 50 ug/ml after 20 mins
Type: functional
Parameters: scale not given: the % may be the effect or the level left
Settings: not given
Oc1ccc(C2=NN(c3ccccc3)C(c3noc(-c4ccc(Cl)cc4)n3)C2)cc1 (stereo unspecified) showed an Activity of 26%.

System: Bacillus cereus
Assay: Antimicrobial activity against Bacillus cereus MTCC 8372 at 50 ug/ml after 24 hrs by agar disc diffusion method
Type: functional
Settings: MTCC 8372, 24 h, read-out: DIZ
Oc1ccc(C2=NN(c3ccccc3)C(c3noc(-c4ccc(Cl)cc4)n3)C2)cc1 (stereo unspecified) showed a zone of inhibition at 50 µg/mL of 8 mm.

System: Radical scavenging activity
Assay: Antioxidant activity assessed as DPPH free radical scavenging activity at 100 ug/ml after 20 mins
Type: functional
Settings: not given
In the case of Oc1ccc(C2=NN(c3ccccc3)C(c3noc(-c4ccc(Cl)cc4)n3)C2)cc1 (stereo unspecified), the Activity is reported as 70%.

System: Shigella flexneri
Assay: Antimicrobial activity against Shigella flexneri MTCC 1457
Type: functional
Settings: not given
In the case of Oc1ccc(C2=NN(c3ccccc3)C(c3noc(-c4ccc(Cl)cc4)n3)C2)cc1 (stereo unspecified), the MIC is reported as 20 µg/mL (≈ 48 µM).

System: Staphylococcus aureus
Assay: Antimicrobial activity against Staphylococcus aureus MTCC 96 at 100 ug/ml after 24 hrs by agar disc diffusion method
Type: functional
Settings: MTCC 96, 24 h, read-out: DIZ
Work on Oc1ccc(C2=NN(c3ccccc3)C(c3noc(-c4ccc(Cl)cc4)n3)C2)cc1 (stereo unspecified) yielded a zone of inhibition at 100 µg/mL of 10 mm.

System: Staphylococcus aureus
Assay: Antimicrobial activity against Staphylococcus aureus MTCC 96
Type: functional
Settings: not given
With Oc1ccc(C2=NN(c3ccccc3)C(c3noc(-c4ccc(Cl)cc4)n3)C2)cc1 (stereo unspecified) the MIC was 25 µg/mL (≈ 60 µM).

System: Radical scavenging activity
Assay: Antioxidant activity assessed as DPPH free radical scavenging activity at 50 ug/ml after 20 mins
Type: functional
Settings: not given
In the case of Oc1ccc(C2=NN(c3ccccc3)C(c3noc(-c4ccc(Cl)cc4)n3)C2)cc1 (stereo unspecified), the Activity is reported as 51%.

System: Shigella flexneri
Assay: Antimicrobial activity against Shigella flexneri MTCC 1457 at 100 ug/ml after 24 hrs by agar disc diffusion method
Type: functional
Settings: MTCC 1457, 24 h, read-out: DIZ
Compound Oc1ccc(C2=NN(c3ccccc3)C(c3noc(-c4ccc(Cl)cc4)n3)C2)cc1 (stereo unspecified) has a zone of inhibition at 100 µg/mL of 18 mm.

System: Aspergillus niger
Assay: Antimicrobial activity against Aspergillus niger MTCC 281 at 50 ug/ml after 24 hrs by agar disc diffusion method
Type: functional
Settings: MTCC 281, 24 h, read-out: DIZ
Work on Oc1ccc(C2=NN(c3ccccc3)C(c3noc(-c4ccc(Cl)cc4)n3)C2)cc1 (stereo unspecified) yielded a zone of inhibition at 50 µg/mL of 12 mm.

System: Escherichia coli
Assay: Antimicrobial activity against Escherichia coli MTCC 724
Type: functional
Settings: not given
For Oc1ccc(C2=NN(c3ccccc3)C(c3noc(-c4ccc(Cl)cc4)n3)C2)cc1 (stereo unspecified), the MIC was 20 µg/mL (≈ 48 µM).

System: Bacillus cereus
Assay: Antimicrobial activity against Bacillus cereus MTCC 8372
Type: functional
Settings: not given
In the case of Oc1ccc(C2=NN(c3ccccc3)C(c3noc(-c4ccc(Cl)cc4)n3)C2)cc1 (stereo unspecified), the MIC is reported as 20 µg/mL (≈ 48 µM).

System: Escherichia coli
Assay: Antimicrobial activity against Escherichia coli MTCC 724 at 100 ug/ml after 24 hrs by agar disc diffusion method
Type: functional
Settings: MTCC 724, 24 h, read-out: DIZ
Oc1ccc(C2=NN(c3ccccc3)C(c3noc(-c4ccc(Cl)cc4)n3)C2)cc1 (stereo unspecified) showed a zone of inhibition at 100 µg/mL of 14 mm.

System: Klebsiella pneumoniae
Assay: Antimicrobial activity against Klebsiella pneumoniae MTCC 3384
Type: functional
Settings: not given
For Oc1ccc(C2=NN(c3ccccc3)C(c3noc(-c4ccc(Cl)cc4)n3)C2)cc1 (stereo unspecified), the MIC was 15 µg/mL (≈ 36 µM).

System: Shigella flexneri
Assay: Antimicrobial activity against Shigella flexneri MTCC 1457 at 50 ug/ml after 24 hrs by agar disc diffusion method
Type: functional
Settings: MTCC 1457, 24 h, read-out: DIZ
Oc1ccc(C2=NN(c3ccccc3)C(c3noc(-c4ccc(Cl)cc4)n3)C2)cc1 (stereo unspecified) gave a zone of inhibition at 50 µg/mL of 8 mm.

System: Klebsiella pneumoniae
Assay: Antimicrobial activity against Klebsiella pneumoniae MTCC 3384 at 100 ug/ml after 24 hrs by agar disc diffusion method
Type: functional
Settings: MTCC 3384, 24 h, read-out: DIZ
Oc1ccc(C2=NN(c3ccccc3)C(c3noc(-c4ccc(Cl)cc4)n3)C2)cc1 (stereo unspecified) gave a zone of inhibition at 100 µg/mL of 12 mm.

System: Klebsiella pneumoniae
Assay: Antimicrobial activity against Klebsiella pneumoniae MTCC 3384 at 50 ug/ml after 24 hrs by agar disc diffusion method
Type: functional
Settings: MTCC 3384, 24 h, read-out: DIZ
With Oc1ccc(C2=NN(c3ccccc3)C(c3noc(-c4ccc(Cl)cc4)n3)C2)cc1 (stereo unspecified) the zone of inhibition at 50 µg/mL was 10 mm.

System: Aspergillus flavus
Assay: Antimicrobial activity against Aspergillus flavus MTCC 873 at 50 ug/ml after 24 hrs by agar disc diffusion method
Type: functional
Settings: MTCC 873, 24 h, read-out: DIZ
Oc1ccc(C2=NN(c3ccccc3)C(c3noc(-c4ccc(Cl)cc4)n3)C2)cc1 (stereo unspecified) showed a zone of inhibition at 50 µg/mL of 10 mm.

System: not listed separately
Assay: Antioxidant activity assessed as reducing power of ferric ion at 100 ug/ml after 20 mins
Type: functional
Parameters: scale not given: the % may be the effect or the level left
Settings: not given
For Oc1ccc(C2=NN(c3ccccc3)C(c3noc(-c4ccc(Cl)cc4)n3)C2)cc1 (stereo unspecified), the Activity was 76%.

System: Bacillus cereus
Assay: Antimicrobial activity against Bacillus cereus MTCC 8372 at 100 ug/ml after 24 hrs by agar disc diffusion method
Type: functional
Settings: MTCC 8372, 24 h, read-out: DIZ
Oc1ccc(C2=NN(c3ccccc3)C(c3noc(-c4ccc(Cl)cc4)n3)C2)cc1 (stereo unspecified) showed a zone of inhibition at 100 µg/mL of 10 mm.

System: not listed separately
Assay: Antioxidant activity assessed as reducing power of ferric ion at 10 ug/ml after 20 mins
Type: functional
Parameters: scale not given: the % may be the effect or the level left
Settings: not given
Compound Oc1ccc(C2=NN(c3ccccc3)C(c3noc(-c4ccc(Cl)cc4)n3)C2)cc1 (stereo unspecified) has an Activity of 14%.

System: not listed separately
Assay: Antioxidant activity against ferric chloride-induced lipid peroxidation using egg lecithin at 100 ug/ml after 1 hr
Type: functional
Settings: not given
Compound Oc1ccc(C2=NN(c3ccccc3)C(c3noc(-c4ccc(Cl)cc4)n3)C2)cc1 (stereo unspecified) has an inhibition of 80%.

System: not listed separately
Assay: Antioxidant activity against ferric chloride-induced lipid peroxidation using egg lecithin at 10 ug/ml after 1 hr
Type: functional
Settings: not given
Oc1ccc(C2=NN(c3ccccc3)C(c3noc(-c4ccc(Cl)cc4)n3)C2)cc1 (stereo unspecified) gave an inhibition of 40%.

System: Radical scavenging activity
Assay: Antioxidant activity assessed as DPPH free radical scavenging activity at 10 ug/ml after 20 mins
Type: functional
Settings: not given
In the case of Oc1ccc(C2=NN(c3ccccc3)C(c3noc(-c4ccc(Cl)cc4)n3)C2)cc1 (stereo unspecified), the Activity is reported as 30%.

System: Aspergillus niger
Assay: Antimicrobial activity against Aspergillus niger MTCC 281 at 100 ug/ml after 24 hrs by agar disc diffusion method
Type: functional
Settings: MTCC 281, 24 h, read-out: DIZ
With Oc1ccc(C2=NN(c3ccccc3)C(c3noc(-c4ccc(Cl)cc4)n3)C2)cc1 (stereo unspecified) the zone of inhibition at 100 µg/mL was 18 mm.

System: Aspergillus niger
Assay: Antimicrobial activity against Aspergillus niger MTCC 281
Type: functional
Settings: not given
Oc1ccc(C2=NN(c3ccccc3)C(c3noc(-c4ccc(Cl)cc4)n3)C2)cc1 (stereo unspecified) showed an MIC of 10 µg/mL (≈ 24 µM).

System: Escherichia coli
Assay: Antimicrobial activity against Escherichia coli MTCC 724 at 50 ug/ml after 24 hrs by agar disc diffusion method
Type: functional
Settings: MTCC 724, 24 h, read-out: DIZ
Compound Oc1ccc(C2=NN(c3ccccc3)C(c3noc(-c4ccc(Cl)cc4)n3)C2)cc1 (stereo unspecified) has a zone of inhibition at 50 µg/mL of 8 mm.

System: not listed separately
Assay: Antiinflammatory activity against heat-induced albumin denaturation at […] preincubated for 15 mins before heat induction by UV-vis spectrophotometer analysis
Type: functional
Settings: not given
Oc1ccc(C2=NN(c3ccccc3)C(c3noc(-c4ccc(Cl)cc4)n3)C2)cc1 (stereo unspecified) showed an inhibition of 74.6%.

System: not listed separately
Assay: Antioxidant activity against ferric chloride-induced lipid peroxidation using egg lecithin at 50 ug/ml after 1 hr
Type: functional
Settings: not given
In the case of Oc1ccc(C2=NN(c3ccccc3)C(c3noc(-c4ccc(Cl)cc4)n3)C2)cc1 (stereo unspecified), the inhibition is reported as 61%.

System: Aspergillus flavus
Assay: Antimicrobial activity against Aspergillus flavus MTCC 873
Type: functional
Settings: not given
In the case of Oc1ccc(C2=NN(c3ccccc3)C(c3noc(-c4ccc(Cl)cc4)n3)C2)cc1 (stereo unspecified), the MIC is reported as 15 µg/mL (≈ 36 µM).

System: Staphylococcus aureus
Assay: Antimicrobial activity against Staphylococcus aureus MTCC 96 at 50 ug/ml after 24 hrs by agar disc diffusion method
Type: functional
Settings: MTCC 96, 24 h, read-out: DIZ
In the case of Oc1ccc(C2=NN(c3ccccc3)C(c3noc(-c4ccc(Cl)cc4)n3)C2)cc1 (stereo unspecified), the zone of inhibition at 50 µg/mL is reported as 6 mm.
